Data as given in patent publication US10761087B2, “Choroidal neovascularization suppressor or drusen formation suppressor, and method for assessing or screening for same” (Link Genomics, Inc., priority 2015, dated 2020).

Experiments:
Type in all cases: in vivo
Vimentin = assay: Mouse laser irradiation model: EMT assessment, Vimentin staining; settings: 25 mg/kg orally once a day for three weeks
Method: It is known that laser irradiation of a mouse ocular fundus induces choroidal angiogenesis and EMT (Reference document: Ishikawa, et al, Exp Eye Res. 2016 January; 142:19.25). So, zaltoprofen was assessed for the suppressive effect of CNV and EMT by using a mouse laser irradiation model. A zaltoprofen suspension was prepared by stirring 0.15 g of zaltoprofen (available from TOKYO CHEMICAL […] CO., LTD.) and 0.75 g of gum arabic (available from Wako Pure Chemical Industries, Ltd.) in 60 mL of water. A medium (Vehicle) was prepared by dissolving and stirring 0.75 g of gum arabic in 60 mL of water. Then, an ocular fundus of a C57BL/6J mouse (8-week old, N=13) was laser-irradiated at four points for each eye under a slit lump using a multi-color laser light coagulator. From directly after irradiation, a vehicle or a zaltoprofen solution (25 mg/kg) was orally administered once a day for three weeks, and the following assessments were conducted. For (1) and (3), the same individual was used. After three weeks from laser irradiation, mice were euthanatized by cervical dislocation, and eyeballs were extracted, and dipped and fixed in 4% paraformaldehyde phosphate buffer (available from Wako Pure Chemical Industries, Ltd.). […]

Collagen Type 1 = assay: Mouse laser irradiation model: EMT assessment, Collagen Type 1 staining; settings: 25 mg/kg orally once a day for three weeks
Method: It is known that laser irradiation of a mouse ocular fundus induces choroidal angiogenesis and EMT (Reference document: Ishikawa, et al, Exp Eye Res. 2016 January; 142:19.25). So, zaltoprofen was assessed for the suppressive effect of CNV and EMT by using a mouse laser irradiation model. A zaltoprofen suspension was prepared by stirring 0.15 g of zaltoprofen (available from TOKYO CHEMICAL […] CO., LTD.) and 0.75 g of gum arabic (available from Wako Pure Chemical Industries, Ltd.) in 60 mL of water. A medium (Vehicle) was prepared by dissolving and stirring 0.75 g of gum arabic in 60 mL of water. Then, an ocular fundus of a C57BL/6J mouse (8-week old, N=13) was laser-irradiated at four points for each eye under a slit lump using a multi-color laser light coagulator. From directly after irradiation, a vehicle or a zaltoprofen solution (25 mg/kg) was orally administered once a day for three weeks, and the following assessments were conducted. For (1) and (3), the same individual was used. After three weeks from laser irradiation, mice were euthanatized by cervical dislocation, and eyeballs were extracted, and dipped and fixed in 4% paraformaldehyde phosphate buffer (Wako Pure Chemical Industries, Ltd.). […] The specimen was subjected to photography of a stained image by the anti-Collagen Type 1 antibody under a microscope, and then quantitatively assessed.

C57BL/6J mouse = assay: Mouse laser irradiation model: CNV assessment by fluorescent fundus photograph; settings: 25 mg/kg orally once a day, versus Vehicle administration group
Method: It is known that laser irradiation of a mouse ocular fundus induces choroidal angiogenesis and EMT (Reference document: Ishikawa, et al, Exp Eye Res. 2016 January; 142:19.25). So, zaltoprofen was assessed for the suppressive effect of CNV and EMT by using a mouse laser irradiation model. A zaltoprofen suspension was prepared by stirring 0.15 g of zaltoprofen (available from TOKYO CHEMICAL […] CO., LTD.) and 0.75 g of gum arabic (available from Wako Pure Chemical Industries, Ltd.) in 60 mL of water. A medium (Vehicle) was prepared by dissolving and stirring 0.75 g of gum arabic in 60 mL of water. Then, an ocular fundus of a C57BL/6J mouse (8-week old, N=13) was laser-irradiated at four points for each eye under a slit lump using a multi-color laser light coagulator. From directly after irradiation, a vehicle or a zaltoprofen solution (25 mg/kg) was orally administered once a day for three weeks, and the following assessments were conducted. For (1) and (3), the same individual was used. After two weeks from laser irradiation, Fluorescite Injection 500 mg (Alcon Japan Ltd.) was administered (1 mL/kg) from the caudal vein, after about 1 minute from the administration, and a fluorescent fundus photograph was taken. Four points for each eye from the taken fluorescent fundus photograph were scored on the basis of the following assessment criteria. [Assessment Criteria] [table]

`CC(C(=O)O)c1ccc2c(c1)CC(=O)c1ccccc1S2` (stereo not drawn) [Zaltoprofen, zaltoprofen] was tested, and the “EMT in the laser irradiation model” value (Vimentin) was “suppresses EMT”, the Vimentin positive area (Vimentin; versus Vehicle administration group) was “reduced” and the “EMT suppressive effect (Collagen Type 1 assessment)” value (Collagen Type 1) was “significant suppressive effect for EMT”. For the same compound, the “Stained volume of Collagen Type 1” value (Collagen Type 1; versus Vehicle administration group, p<0.05) was “significantly decreases”, the “CNV by laser irradiation (fluorescent fundus photographs)” value (C57BL/6J mouse; FIG. 22) was “significantly suppressed” and the “CNV score by laser irradiation” value (C57BL/6J mouse; two weeks after laser irradiation) was “significantly lower”.
